Experiment [1] deals with Kappa-type opioid receptor (Homo sapiens, UniProt P41145). The class given is functional.
Experiment [2] deals with Protein kinase C delta type (Homo sapiens, UniProt Q05655). The experiment is classed as functional.
For experiment [3], the target named is SRSF protein kinase 1 (Homo sapiens, UniProt Q96SB4). The class given is functional.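 Further: measured as one member of a kinome-wide kinase profiling panel.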
Experiment [4] can be described thus: cells. The experiment is classed as functional, cell-based.
Experiment [5] has as its target T1, Sentrin-specific protease 7 (Homo sapiens, UniProt Q9BQF6).
T1 sequence (Q9BQF6 whole entry): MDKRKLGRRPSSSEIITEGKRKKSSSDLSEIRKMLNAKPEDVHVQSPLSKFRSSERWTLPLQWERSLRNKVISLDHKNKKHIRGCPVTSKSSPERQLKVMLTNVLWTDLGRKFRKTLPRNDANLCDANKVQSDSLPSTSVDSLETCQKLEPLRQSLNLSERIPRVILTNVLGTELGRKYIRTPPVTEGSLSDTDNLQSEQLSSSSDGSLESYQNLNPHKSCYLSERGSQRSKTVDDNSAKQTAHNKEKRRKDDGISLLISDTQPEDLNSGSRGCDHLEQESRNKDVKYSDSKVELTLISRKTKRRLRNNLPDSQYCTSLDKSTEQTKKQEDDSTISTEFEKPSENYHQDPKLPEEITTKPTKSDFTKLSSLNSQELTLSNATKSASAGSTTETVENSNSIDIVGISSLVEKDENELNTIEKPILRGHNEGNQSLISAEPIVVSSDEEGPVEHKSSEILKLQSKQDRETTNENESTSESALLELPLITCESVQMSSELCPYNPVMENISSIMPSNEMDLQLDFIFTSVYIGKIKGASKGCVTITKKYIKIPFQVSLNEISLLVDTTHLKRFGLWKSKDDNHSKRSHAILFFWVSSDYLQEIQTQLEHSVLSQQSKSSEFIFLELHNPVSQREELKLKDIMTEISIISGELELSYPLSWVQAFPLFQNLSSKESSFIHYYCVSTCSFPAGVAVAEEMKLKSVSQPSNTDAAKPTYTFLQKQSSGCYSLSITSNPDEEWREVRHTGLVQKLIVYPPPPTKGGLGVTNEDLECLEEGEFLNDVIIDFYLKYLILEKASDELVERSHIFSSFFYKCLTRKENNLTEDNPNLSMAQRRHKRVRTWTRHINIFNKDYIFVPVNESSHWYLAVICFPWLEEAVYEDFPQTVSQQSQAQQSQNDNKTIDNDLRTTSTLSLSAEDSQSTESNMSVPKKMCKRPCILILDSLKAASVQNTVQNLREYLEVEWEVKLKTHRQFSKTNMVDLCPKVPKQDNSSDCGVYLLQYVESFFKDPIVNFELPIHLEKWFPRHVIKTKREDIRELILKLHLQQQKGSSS
Description: inhibition of human SENP7 cleavage activity – biochemical, luminescence, SAR follow-up (AID 504497). The class given is functional.

In experiment [6] the target is Peroxisome proliferator-activated receptor gamma/Nuclear receptor coactivator 2 (Homo sapiens, UniProt P37231). The experiment is classed as functional.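 Further: agonist potency for raising coactivator recruitment to the receptor.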
Experiment [7] concerns the target Induced myeloid leukemia cell differentiation protein Mcl-1 (Homo sapiens, UniProt Q07820). The class given is functional.

pIC50: −log10 of the molar value. Calls of active or inactive are those of the source.

The pIC50 is the negative decadic logarithm of the IC50, by convention in mol/L. The low end stands for a large IC50, the high end for a small IC50. By Ki is commonly meant a dissociation constant, usually derived from enzyme kinetics or from competition with a known ligand. As usually defined, the IC50 is the point on the concentration scale where inhibition reaches its midpoint. By EC50 is commonly meant the concentration that produces a half-maximal response.

Kappa-type opioid receptor, sequence (P41145 whole entry): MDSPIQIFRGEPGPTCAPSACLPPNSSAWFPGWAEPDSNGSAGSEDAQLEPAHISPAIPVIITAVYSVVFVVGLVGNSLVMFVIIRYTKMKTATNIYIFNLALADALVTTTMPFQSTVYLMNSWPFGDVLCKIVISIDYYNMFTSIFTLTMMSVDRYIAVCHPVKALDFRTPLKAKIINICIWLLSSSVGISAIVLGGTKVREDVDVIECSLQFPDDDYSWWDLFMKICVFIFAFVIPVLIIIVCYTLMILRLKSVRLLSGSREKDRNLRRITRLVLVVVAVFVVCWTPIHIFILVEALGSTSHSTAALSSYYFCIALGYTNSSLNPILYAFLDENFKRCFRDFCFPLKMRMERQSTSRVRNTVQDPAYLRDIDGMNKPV
Peroxisome proliferator-activated receptor gamma/Nuclear receptor coactivator 2, sequence (P37231 whole entry): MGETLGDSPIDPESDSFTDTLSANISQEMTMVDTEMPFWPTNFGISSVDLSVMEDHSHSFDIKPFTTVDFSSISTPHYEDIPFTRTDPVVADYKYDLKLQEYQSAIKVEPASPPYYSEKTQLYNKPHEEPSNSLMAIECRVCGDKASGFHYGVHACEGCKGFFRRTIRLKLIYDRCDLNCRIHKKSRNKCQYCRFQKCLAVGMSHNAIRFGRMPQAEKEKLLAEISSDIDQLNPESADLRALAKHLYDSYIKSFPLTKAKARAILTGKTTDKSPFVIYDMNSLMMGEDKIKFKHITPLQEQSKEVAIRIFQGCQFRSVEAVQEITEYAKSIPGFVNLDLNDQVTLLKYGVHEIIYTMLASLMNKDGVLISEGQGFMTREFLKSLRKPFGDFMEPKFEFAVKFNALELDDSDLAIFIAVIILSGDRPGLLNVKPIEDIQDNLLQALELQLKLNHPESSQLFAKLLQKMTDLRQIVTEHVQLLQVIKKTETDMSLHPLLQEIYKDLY
Peroxisome proliferator-activated receptor gamma/Nuclear receptor coactivator 2, sequence (Q15596 whole entry, further chain): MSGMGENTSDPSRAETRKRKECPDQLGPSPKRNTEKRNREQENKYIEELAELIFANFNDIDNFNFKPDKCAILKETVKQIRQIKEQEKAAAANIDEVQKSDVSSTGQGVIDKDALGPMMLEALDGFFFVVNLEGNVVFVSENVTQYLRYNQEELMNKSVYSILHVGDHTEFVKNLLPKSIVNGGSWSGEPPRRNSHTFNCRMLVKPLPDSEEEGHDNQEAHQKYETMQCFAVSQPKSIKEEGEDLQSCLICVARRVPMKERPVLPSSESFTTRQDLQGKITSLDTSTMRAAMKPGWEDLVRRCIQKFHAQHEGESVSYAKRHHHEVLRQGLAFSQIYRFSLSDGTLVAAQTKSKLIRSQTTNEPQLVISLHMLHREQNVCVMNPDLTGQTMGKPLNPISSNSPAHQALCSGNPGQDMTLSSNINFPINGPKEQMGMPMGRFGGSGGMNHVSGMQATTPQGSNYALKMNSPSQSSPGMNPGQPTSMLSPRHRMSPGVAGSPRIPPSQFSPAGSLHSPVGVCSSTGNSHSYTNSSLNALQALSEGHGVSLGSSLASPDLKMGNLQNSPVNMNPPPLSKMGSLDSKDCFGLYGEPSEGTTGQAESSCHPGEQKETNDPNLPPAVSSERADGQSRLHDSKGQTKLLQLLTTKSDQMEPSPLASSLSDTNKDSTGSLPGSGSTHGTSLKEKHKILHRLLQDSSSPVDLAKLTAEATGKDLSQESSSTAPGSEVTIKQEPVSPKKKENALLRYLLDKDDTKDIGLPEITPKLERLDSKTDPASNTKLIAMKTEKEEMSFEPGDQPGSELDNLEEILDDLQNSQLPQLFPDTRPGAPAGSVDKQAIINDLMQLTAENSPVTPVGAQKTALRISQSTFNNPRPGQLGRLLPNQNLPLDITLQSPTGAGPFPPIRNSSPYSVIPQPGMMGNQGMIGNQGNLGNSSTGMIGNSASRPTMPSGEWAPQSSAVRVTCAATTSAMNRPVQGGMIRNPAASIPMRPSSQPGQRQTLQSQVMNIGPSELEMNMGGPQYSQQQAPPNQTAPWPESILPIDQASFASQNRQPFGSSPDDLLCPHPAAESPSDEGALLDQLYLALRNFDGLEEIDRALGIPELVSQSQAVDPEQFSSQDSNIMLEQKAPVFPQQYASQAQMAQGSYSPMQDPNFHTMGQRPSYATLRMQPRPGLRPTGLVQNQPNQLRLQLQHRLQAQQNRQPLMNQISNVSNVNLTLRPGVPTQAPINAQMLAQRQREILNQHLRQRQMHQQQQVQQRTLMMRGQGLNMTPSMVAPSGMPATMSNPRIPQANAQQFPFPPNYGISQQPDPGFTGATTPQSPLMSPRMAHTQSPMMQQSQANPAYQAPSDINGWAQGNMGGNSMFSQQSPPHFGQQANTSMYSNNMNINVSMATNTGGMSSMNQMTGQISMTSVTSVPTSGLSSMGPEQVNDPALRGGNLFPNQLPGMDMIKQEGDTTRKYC
Protein kinase C delta type, sequence (Q05655 whole entry): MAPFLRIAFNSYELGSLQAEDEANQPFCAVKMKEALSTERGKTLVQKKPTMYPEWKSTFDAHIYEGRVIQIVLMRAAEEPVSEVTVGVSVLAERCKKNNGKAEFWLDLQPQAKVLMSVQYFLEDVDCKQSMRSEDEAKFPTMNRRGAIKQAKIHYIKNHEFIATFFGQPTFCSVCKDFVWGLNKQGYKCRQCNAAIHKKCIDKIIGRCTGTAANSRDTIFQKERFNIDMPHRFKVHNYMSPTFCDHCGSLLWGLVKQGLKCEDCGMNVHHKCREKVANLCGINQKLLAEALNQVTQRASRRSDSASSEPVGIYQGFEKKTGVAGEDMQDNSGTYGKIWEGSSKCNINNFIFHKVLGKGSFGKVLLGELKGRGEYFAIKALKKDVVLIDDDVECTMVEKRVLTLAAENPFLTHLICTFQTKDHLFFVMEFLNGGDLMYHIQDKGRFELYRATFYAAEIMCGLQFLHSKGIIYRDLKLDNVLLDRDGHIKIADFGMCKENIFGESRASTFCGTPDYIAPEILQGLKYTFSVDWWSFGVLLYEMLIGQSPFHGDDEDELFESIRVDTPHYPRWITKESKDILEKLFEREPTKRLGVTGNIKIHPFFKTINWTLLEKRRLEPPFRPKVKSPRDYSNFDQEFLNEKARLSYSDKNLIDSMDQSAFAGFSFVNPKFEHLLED
Induced myeloid leukemia cell differentiation protein Mcl-1, sequence (Q07820 whole entry): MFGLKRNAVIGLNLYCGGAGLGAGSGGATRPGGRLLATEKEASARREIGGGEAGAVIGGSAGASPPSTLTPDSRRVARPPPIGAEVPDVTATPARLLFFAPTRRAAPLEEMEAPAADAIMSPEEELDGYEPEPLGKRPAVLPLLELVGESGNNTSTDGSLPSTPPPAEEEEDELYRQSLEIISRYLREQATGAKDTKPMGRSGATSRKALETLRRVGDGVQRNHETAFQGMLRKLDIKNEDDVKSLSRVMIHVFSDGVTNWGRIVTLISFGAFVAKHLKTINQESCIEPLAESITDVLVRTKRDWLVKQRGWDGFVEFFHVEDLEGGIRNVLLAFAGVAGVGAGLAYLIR
SRSF protein kinase 1, sequence (Q96SB4 whole entry): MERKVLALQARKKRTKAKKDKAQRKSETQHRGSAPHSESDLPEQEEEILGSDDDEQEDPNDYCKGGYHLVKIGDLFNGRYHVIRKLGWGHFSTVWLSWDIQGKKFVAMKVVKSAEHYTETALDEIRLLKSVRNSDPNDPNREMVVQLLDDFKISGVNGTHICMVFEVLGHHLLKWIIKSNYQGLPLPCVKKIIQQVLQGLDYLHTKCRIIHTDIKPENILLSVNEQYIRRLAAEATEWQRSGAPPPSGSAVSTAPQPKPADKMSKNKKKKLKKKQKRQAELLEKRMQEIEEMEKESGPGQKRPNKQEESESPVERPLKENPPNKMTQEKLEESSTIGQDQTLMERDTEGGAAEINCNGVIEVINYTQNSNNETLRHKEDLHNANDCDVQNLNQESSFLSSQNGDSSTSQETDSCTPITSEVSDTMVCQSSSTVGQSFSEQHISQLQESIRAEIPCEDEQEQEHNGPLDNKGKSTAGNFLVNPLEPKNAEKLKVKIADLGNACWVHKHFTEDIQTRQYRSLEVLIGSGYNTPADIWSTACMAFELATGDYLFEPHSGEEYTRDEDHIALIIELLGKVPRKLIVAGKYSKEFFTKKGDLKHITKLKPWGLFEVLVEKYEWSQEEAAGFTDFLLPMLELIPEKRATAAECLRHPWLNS

Take `Cc1ccc(Nc2cc(C)nn2-c2nc(C)cc(O)n2)cc1`: the pIC50 in experiment [1] was less than 4.49.

With `O=C1NC(=S)SC1=C1C(=O)Nc2ccc(Br)cc21`, the values for the Ki in experiment [2] and in experiment [3] were > 7.94 µM (inactive) and 6.31 µM (active), respectively.

As to `Cc1cnc(NC(=O)c2sc3ccccc3c2Cl)s1`, the IC50 was > 67.5 µM (inactive) in experiment [4] and 1.77 µM (active) in experiment [5].

For `CN(C)c1ncc(C2=C(Cl)C(=O)C(N3CCCC3)=C(Cl)C2=O)s1`, the EC50 in experiment [6] was > 79.4 µM (not active). In addition, the IC50 in experiment [7] was 26.4 µM (active).

These data come from ChEMBL document CHEMBL1201862, “PubChem BioAssay data set” (2004).
